{
  "source": "ChEMBL document CHEMBL5352414",
  "about": "(Eur J Med Chem, 2022)",
  "key": {"[1]": {"target": "5-hydroxytryptamine receptor 2A (Rattus norvegicus) (UniProt P14842)", "sequence (P14842 whole entry)": "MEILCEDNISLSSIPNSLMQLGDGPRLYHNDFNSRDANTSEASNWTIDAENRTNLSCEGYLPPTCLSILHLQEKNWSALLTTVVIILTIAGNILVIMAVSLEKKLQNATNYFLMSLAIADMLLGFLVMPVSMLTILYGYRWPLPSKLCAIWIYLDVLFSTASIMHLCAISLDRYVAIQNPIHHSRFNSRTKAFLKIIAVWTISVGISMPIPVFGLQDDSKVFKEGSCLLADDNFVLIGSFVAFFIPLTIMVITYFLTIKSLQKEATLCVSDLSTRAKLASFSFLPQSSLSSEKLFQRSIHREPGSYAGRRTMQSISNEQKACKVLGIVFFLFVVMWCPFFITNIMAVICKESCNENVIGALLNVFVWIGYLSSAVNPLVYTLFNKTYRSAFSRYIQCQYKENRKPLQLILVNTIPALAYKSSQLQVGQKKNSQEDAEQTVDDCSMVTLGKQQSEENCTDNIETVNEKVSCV", "test": "Antagonist activity at 5-HT2A receptor in Wistar rat jugular vein assessed as vasorelaxation of serotonin-induced contraction at 10 uM preincubated for 10 mins followed by serotonin stimulation", "assay_type": "functional, tissue-based"}, "[2]": {"target": "T1, Voltage-dependent T-type calcium channel subunit alpha-1H (Homo sapiens, UniProt O95180)", "T1 sequence (O95180 whole entry)": "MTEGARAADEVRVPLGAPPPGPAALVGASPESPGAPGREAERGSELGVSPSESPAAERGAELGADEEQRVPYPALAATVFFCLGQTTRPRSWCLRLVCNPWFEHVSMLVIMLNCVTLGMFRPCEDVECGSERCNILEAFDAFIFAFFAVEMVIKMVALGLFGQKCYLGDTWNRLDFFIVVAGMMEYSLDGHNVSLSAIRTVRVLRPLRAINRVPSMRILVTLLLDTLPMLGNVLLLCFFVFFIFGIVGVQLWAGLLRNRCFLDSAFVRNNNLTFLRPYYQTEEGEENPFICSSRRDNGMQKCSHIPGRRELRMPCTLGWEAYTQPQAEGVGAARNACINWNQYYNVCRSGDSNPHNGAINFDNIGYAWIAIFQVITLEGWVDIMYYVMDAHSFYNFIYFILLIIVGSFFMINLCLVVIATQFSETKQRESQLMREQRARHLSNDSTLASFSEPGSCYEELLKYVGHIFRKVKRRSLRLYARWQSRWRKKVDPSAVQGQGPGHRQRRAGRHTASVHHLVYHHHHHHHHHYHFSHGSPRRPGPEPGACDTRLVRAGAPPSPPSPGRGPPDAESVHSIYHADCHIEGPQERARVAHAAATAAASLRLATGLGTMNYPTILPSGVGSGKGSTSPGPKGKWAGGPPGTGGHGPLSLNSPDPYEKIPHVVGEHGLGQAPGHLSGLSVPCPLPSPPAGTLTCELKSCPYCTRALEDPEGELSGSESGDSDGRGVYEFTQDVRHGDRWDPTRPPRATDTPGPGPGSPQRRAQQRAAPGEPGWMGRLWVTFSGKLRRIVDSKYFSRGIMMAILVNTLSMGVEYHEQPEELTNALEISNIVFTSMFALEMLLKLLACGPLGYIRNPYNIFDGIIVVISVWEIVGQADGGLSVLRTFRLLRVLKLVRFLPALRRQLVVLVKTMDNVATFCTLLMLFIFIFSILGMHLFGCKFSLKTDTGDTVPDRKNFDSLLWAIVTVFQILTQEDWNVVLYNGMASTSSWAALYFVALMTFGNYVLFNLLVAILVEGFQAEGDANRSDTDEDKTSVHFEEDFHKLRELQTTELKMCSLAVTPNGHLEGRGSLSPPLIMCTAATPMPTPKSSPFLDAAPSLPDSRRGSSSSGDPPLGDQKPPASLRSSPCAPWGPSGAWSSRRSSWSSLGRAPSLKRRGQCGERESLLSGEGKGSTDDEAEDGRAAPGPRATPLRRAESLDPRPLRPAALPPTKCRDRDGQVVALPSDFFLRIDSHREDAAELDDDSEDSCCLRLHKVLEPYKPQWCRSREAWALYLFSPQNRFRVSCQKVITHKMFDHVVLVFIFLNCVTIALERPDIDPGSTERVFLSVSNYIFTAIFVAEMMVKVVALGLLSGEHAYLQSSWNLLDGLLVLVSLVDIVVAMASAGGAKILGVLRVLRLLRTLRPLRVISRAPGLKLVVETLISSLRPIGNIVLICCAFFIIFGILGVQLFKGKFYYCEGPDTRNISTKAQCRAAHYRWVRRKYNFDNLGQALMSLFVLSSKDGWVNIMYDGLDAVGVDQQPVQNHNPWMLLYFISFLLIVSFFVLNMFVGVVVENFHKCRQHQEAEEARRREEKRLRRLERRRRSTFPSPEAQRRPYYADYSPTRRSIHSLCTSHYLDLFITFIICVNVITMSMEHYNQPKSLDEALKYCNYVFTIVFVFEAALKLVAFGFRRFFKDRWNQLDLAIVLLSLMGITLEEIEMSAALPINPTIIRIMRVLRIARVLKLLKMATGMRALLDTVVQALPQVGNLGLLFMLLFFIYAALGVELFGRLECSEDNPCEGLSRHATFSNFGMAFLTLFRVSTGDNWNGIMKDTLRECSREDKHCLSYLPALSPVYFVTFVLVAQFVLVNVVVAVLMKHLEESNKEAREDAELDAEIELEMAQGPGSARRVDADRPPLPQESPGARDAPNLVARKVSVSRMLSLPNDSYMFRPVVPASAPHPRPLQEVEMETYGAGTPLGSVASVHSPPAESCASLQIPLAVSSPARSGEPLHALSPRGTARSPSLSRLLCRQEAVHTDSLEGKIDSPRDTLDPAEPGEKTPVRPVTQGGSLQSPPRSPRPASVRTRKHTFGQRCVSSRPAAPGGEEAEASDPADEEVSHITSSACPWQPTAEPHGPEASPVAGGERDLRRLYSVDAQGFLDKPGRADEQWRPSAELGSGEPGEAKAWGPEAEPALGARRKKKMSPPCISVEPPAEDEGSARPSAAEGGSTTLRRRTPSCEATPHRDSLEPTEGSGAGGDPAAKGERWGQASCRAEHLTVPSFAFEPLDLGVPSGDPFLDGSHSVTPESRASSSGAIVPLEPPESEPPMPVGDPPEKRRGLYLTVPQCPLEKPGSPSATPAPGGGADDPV", "test": "Inhibition of human Cav3.2 T-type Ca2+ channel expressed in HEK293 cells assessed as reduction in T-currents at 0.3 uM at -80 mV holding potential by whole cell patch-clamp assay", "assay_type": "cell-based"}, "[3]": {"target": "D(2) dopamine receptor (Rattus norvegicus) (UniProt P61169)", "sequence (P61169 whole entry)": "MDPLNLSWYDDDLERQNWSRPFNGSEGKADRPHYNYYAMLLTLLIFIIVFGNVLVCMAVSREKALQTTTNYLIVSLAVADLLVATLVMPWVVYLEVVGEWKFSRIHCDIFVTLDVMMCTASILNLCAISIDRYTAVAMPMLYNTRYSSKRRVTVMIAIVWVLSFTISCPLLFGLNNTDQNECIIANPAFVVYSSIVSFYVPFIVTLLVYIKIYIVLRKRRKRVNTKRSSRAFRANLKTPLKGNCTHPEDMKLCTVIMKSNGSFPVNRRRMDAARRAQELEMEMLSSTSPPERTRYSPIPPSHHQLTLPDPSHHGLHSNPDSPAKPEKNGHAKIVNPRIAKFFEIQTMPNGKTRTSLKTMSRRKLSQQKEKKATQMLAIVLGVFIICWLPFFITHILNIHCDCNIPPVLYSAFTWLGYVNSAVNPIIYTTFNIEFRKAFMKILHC", "test": "Displacement of [3H]-spiperone from dopamine D2 receptor in rat brain striatum membrane homogenates at 1 uM incubated for 90 mins", "assay_type": "cell membranes"}, "[4]": {"target": "D(2) dopamine receptor (Rattus norvegicus) (UniProt P61169)", "test": "Displacement of [3H]-spiperone from dopamine D2 receptor in rat brain striatum membrane homogenates at 10 uM incubated for 90 mins", "assay_type": "cell membranes"}, "[5]": {"target": "Voltage-dependent T-type calcium channel subunit alpha-1G (Homo sapiens, UniProt O43497)", "test": "Inhibition of human Cav3.1 T-type Ca2+ channel expressed in HEK293 cells assessed as effect on T-currents in response to -20 mV test pulse at -80 mV holding potential by whole cell patch-clamp assay", "assay_type": "cell-based"}, "[6]": {"test": "Toxicity in mouse assessed as catelepsy at 8 nmol per mouse, icv measured for 180 mins by bar test", "conditions": "in vivo, icv_or_intrathecal, 3 h"}, "[7]": {"test": "Toxicity in mouse assessed as catelepsy at 10 mg/kg, ip measured for 300 mins by bar test", "assay_type": "organism-based", "conditions": "in vivo, 5 h"}, "[8]": {"test": "Toxicity in mouse assessed as impairment of neuromuscular coordination by measuring shortened latency to fall at 10 mg/kg, ip measured after 60 to 90 mins by rota-rod test", "assay_type": "organism-based", "conditions": "in vivo, time 60-90 min"}, "[9]": {"target": "5-hydroxytryptamine receptor 2A (Rattus norvegicus) (UniProt P14842)", "test": "Antagonist activity at 5-HT2A receptor in Wistar rat jugular vein assessed as vasorelaxation of serotonin-induced contraction at 100 uM preincubated for 10 mins followed by serotonin stimulation", "assay_type": "functional, tissue-based", "conditions": "filed as antagonist"}, "[10]": {"test": "Half life in mouse at 10 mg/kg, ip measured for 24 hrs by LC-MS/MS analysis", "assay_type": "ADME, organism-based", "conditions": "in vivo"}, "[11]": {"test": "Antagonist activity at 5-HT1 receptor (unknown origin)", "design": "species or system Homo sapiens"}, "Mus musculus [12]": {"system": "Mus musculus", "test": "Antinociceptive activity in Na2S induced colonic pain mouse model at 0.03 to 0.5 mg/kg, ip pretreated for 30 mins followed by intra-colonic administration of Na2S and measured for 30 mins by von frey test", "assay_type": "functional, organism-based", "conditions": "dose 0.03-0.5 mg/kg, time 60.0 min"}, "Mus musculus [13]": {"system": "Mus musculus", "test": "Antinociceptive activity in Na2S induced referred hyperalgesia mouse model at 0.03 to 0.5 mg/kg, ip pretreated for 30 mins followed by intracolonic administration of Na2S and measured for 30 mins by von frey test", "assay_type": "functional, organism-based", "conditions": "dose 0.03-0.5 mg/kg, time 60.0 min"}, "[14]": {"test": "Toxicity in mouse assessed as catelepsy at 0.3 to 1 mg/kg, ip measured for 300 mins by bar test", "assay_type": "organism-based", "conditions": "in vivo, 5 h, dose 0.3-1 mg/kg"}, "[15]": {"test": "Toxicity in mouse assessed as impairment of neuromuscular coordination by measuring shortened latency to fall at 1 mg/kg, ip measured after 60 to 90 mins by rota-rod test", "assay_type": "organism-based", "conditions": "in vivo, time 60-90 min"}, "[16]": {"target": "T1, Voltage-dependent T-type calcium channel subunit alpha-1H", "test": "Inhibition of human Cav3.2 T-type Ca2+ channel expressed in HEK293 cells assessed as effect on T-currents in response to -20 mV test pulse at -80 mV holding potential by whole cell patch-clamp assay", "assay_type": "cell-based"}, "[17]": {"target": "T1, Voltage-dependent T-type calcium channel subunit alpha-1H", "test": "Inhibition of human Cav3.2 T-type Ca2+ channel expressed in HEK293 cells assessed as effect on T-currents in response to -20 mV test pulse at -110 mV holding potential by whole cell patch-clamp assay", "assay_type": "cell-based"}},
  "note": "Calls of active or inactive are those of the source. No cut-off for these calls is given here.",
  "data": [
    {"smiles": "COc1ccc2c(c1)c(CC(=O)O)c(C)n2C(=O)c1ccc(Cl)cc1", "values": [
      {"measurement": "Activity", "setting": "[1]; filed as antagonist", "result": "Active"}
    ]},
    {"smiles": "COc1ccccc1CCCCn1c(=O)n(C2CCN(CCCCc3ccccc3)CC2)c2ccccc21", "values": [
      {"measurement": "inhibition", "setting": "[2]", "result": "Active"},
      {"measurement": "Activity", "setting": "[3]", "result": "inactive"}
    ]},
    {"smiles": "COc1ccccc1CCCCN1CCC(n2c(=O)n(CCCCc3ccccc3OC)c3ccccc32)CC1", "values": [
      {"measurement": "inhibition", "setting": "[2]", "result": "Active"},
      {"measurement": "Activity", "setting": "[3]", "result": "inactive"}
    ]},
    {"smiles": "O=C(CCCc1ccccc1)N1CCC(n2c(=O)n(CCCCc3ccccc3)c3ccccc32)CC1", "values": [
      {"measurement": "inhibition", "setting": "[2]", "result": "Active"},
      {"measurement": "Activity", "setting": "[3]", "result": "inactive"},
      {"measurement": "Activity", "setting": "[4]", "result": "inactive"},
      {"measurement": "IC50", "setting": "[5]", "result": 240, "unit": "nM"},
      {"measurement": "Activity", "setting": "[6]", "result": "Non-Toxic"},
      {"measurement": "Activity", "setting": "[7]", "result": "Non-Toxic"},
      {"measurement": "Activity", "setting": "[8]", "result": "Non-Toxic"}
    ]},
    {"smiles": "COc1ccccc1CCCCN1CCC(n2c(=O)n(CCCCc3ccccc3)c3ccccc32)CC1", "values": [
      {"measurement": "inhibition", "setting": "[2]", "result": "Active"},
      {"measurement": "Activity", "setting": "[3]", "result": "inactive"},
      {"measurement": "Activity", "setting": "[4]", "result": "inactive"}
    ]},
    {"smiles": "O=c1n(CCCCc2ccccc2)c2ccccc2n1C1CCN(CCCOc2ccccc2)CC1", "values": [
      {"measurement": "inhibition", "setting": "[2]", "result": "Active"},
      {"measurement": "Activity", "setting": "[3]", "result": "inactive"},
      {"measurement": "Activity", "setting": "[4]", "result": "inactive"}
    ]},
    {"smiles": "COC(=O)[C@@H](N)CCCNC(=N)N[N+](=O)[O-]", "values": [
      {"measurement": "Activity", "setting": "[9]", "result": "Active"}
    ]},
    {"smiles": "O=c1n(CCCCc2ccccc2)c2ccccc2n1C1CCN(CCCC(c2ccc(F)cc2)c2ccc(F)cc2)CC1", "values": [
      {"measurement": "inhibition", "setting": "[2]", "result": "inactive"},
      {"measurement": "Activity", "setting": "[3]", "result": "inactive"}
    ]},
    {"smiles": "O=c1[nH]c2ccccc2n1C1CCN(CCCC(c2ccc(F)cc2)c2ccc(F)cc2)CC1", "note": "[PIMOZIDE]", "values": [
      {"measurement": "IC50", "setting": "[5]", "result": 307, "unit": "nM"},
      {"measurement": "half-life", "setting": "[10]", "result": 2.47, "unit": "h"},
      {"measurement": "IC50", "setting": "[11]", "result": 2440, "unit": "nM"},
      {"measurement": "Activity", "setting": "[1]; filed as antagonist", "result": "Active"},
      {"measurement": "Activity", "setting": "Mus musculus [12]", "result": "Active"},
      {"measurement": "Activity", "setting": "Mus musculus [13]", "result": "Active"},
      {"measurement": "Activity", "setting": "[6]", "result": "Toxic"},
      {"measurement": "Activity", "setting": "[14]", "result": "Toxic"},
      {"measurement": "Activity", "setting": "[15]", "result": "Toxic"}
    ]},
    {"smiles": "O=c1n(CCCCc2ccccc2Cl)c2ccccc2n1C1CCN(CCCCc2ccccc2)CC1", "values": [
      {"measurement": "inhibition", "setting": "[2]", "result": "Active"},
      {"measurement": "Activity", "setting": "[3]", "result": "inactive"}
    ]},
    {"smiles": "O=c1n(CCCCc2ccccc2)c2ccccc2n1C1CCN(CCCCc2ccccc2)CC1", "values": [
      {"measurement": "inhibition", "setting": "[2]", "result": "Active"},
      {"measurement": "Activity", "setting": "[3]", "result": "inactive"},
      {"measurement": "Activity", "setting": "[4]", "result": "inactive"},
      {"measurement": "IC50", "setting": "[5]", "result": 209, "unit": "nM"},
      {"measurement": "Activity", "setting": "[6]", "result": "Non-Toxic"},
      {"measurement": "Activity", "setting": "[7]", "result": "Non-Toxic"},
      {"measurement": "Activity", "setting": "[8]", "result": "Non-Toxic"}
    ]},
    {"smiles": "O=c1n(CCCCc2cccc(F)c2)c2ccccc2n1C1CCN(CCCCc2cccc(F)c2)CC1", "values": [
      {"measurement": "inhibition", "setting": "[2]", "result": "Active"},
      {"measurement": "Activity", "setting": "[3]", "result": "inactive"},
      {"measurement": "IC50", "setting": "[16]", "result": 93, "unit": "nM"},
      {"measurement": "IC50", "setting": "[17]", "result": 1110, "unit": "nM"},
      {"measurement": "IC50", "setting": "[5]", "result": 217, "unit": "nM"},
      {"measurement": "half-life", "setting": "[10]", "result": 2.42, "unit": "h"},
      {"measurement": "Activity", "setting": "[1]", "result": "inactive"},
      {"measurement": "Activity", "setting": "[6]", "result": "Non-Toxic"},
      {"measurement": "Activity", "setting": "[7]", "result": "Non-Toxic"},
      {"measurement": "Activity", "setting": "[8]", "result": "Non-Toxic"}
    ]},
    {"smiles": "O=c1n(CCCCc2ccccc2)c2ccccc2n1C1CCN(CCCCc2cccc(F)c2)CC1", "values": [
      {"measurement": "inhibition", "setting": "[2]", "result": "Active"},
      {"measurement": "Activity", "setting": "[3]", "result": "inactive"},
      {"measurement": "IC50", "setting": "[16]", "result": 151, "unit": "nM"},
      {"measurement": "IC50", "setting": "[5]", "result": 211, "unit": "nM"}
    ]},
    {"smiles": "O=c1n(CCCCc2ccccc2)c2ccccc2n1C1CCN(CCCCc2ccccc2F)CC1", "values": [
      {"measurement": "inhibition", "setting": "[2]", "result": "Active"},
      {"measurement": "Activity", "setting": "[3]", "result": "inactive"}
    ]}
  ]
}
